{"source": "patent US20250049791A1", "about": "“Synthesis of MEK7 Inhibitors and methods of Use Thereof” (Northwestern University, priority 2023, published 2025)", "key": {"MEK3": {"target": "T1, MEK3 (Homo sapiens, UniProt P46734)", "T1 sequence (P46734 1-347)": "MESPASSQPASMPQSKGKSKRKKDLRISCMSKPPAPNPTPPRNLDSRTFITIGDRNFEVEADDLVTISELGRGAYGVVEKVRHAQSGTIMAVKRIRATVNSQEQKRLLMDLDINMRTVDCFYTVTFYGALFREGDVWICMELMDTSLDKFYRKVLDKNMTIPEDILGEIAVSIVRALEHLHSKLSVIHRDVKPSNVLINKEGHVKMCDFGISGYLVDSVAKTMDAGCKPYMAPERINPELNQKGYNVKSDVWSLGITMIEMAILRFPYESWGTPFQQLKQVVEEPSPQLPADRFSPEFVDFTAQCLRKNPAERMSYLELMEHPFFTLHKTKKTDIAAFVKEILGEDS", "experiment": "Additional selectivity assay, MEK3 (FIG. 9)", "assay_type": "binding"}, "[1]": {"target": "T2, recombinant active full-length human MEK7 (Homo sapiens, UniProt O14733)", "T2 construct": "recombinant active full-length human MEK7 (Carna Biosciences); purchased Carna Biosciences", "T2 sequence (O14733 1-419)": "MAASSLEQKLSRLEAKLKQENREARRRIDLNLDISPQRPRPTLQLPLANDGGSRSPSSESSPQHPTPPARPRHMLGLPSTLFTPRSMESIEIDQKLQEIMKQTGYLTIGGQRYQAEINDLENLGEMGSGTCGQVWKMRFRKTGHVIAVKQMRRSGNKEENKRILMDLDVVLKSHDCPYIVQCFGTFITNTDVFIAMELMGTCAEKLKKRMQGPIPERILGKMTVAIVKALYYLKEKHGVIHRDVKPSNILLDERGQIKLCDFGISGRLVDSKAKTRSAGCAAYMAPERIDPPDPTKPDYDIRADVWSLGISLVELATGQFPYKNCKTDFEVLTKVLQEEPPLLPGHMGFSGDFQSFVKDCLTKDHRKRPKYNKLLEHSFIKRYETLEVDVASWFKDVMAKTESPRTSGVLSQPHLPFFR", "experiment": "ADP-Glo kinase activity assay, MEK7 with JNK1 substrate", "assay_type": "biochemical", "experimental": "Procedure for a 5 μL Kinase reaction using the ADP-Glo Kinase Assay Kit from Promega. Staurosporine was used as the positive control, and DMSO (vehicle) was employed as the negative control. Activity of recombinant active full-length human MEK7 (Carna Biosciences) was measured with recombinant full-length human substrate JNK1 (MAPK8). Using a Mantis, a mixture of MEK7 and JNK1 was dispensed into a 384-well low volume white Proxiplate. For each well, 4 ng of MEK7 and 600 ng of JNK1 in kinase buffer (CST) were used, accounting for 1 μL of this mixture per well. Inhibitor was prepared in a DMSO solution (40 mM). A dose-response dilution was performed in a 384-well Echo transfer plate. Using an Echo Access, 10 nL of each solution was dispensed into the same 384-well low volume white Proxiplate as above. This mixture was allowed to incubate for 30 minutes at room temperature. Using a Mantis, 1 uL of an 8 μM ATP solution was added to each well, and the plate was allowed to incubate for another 1 hour at room temperature. Using the Mantis again, 4 μL of ADP Glo Reagent was dispensed into each well, and the plate was allowed to incubate for 45 min at room temperature. Finally, 9 μL of Kinase Detection Reagent was added manually to each well, and the plate was allowed to incubate for 45 minutes at room temperature. Luminescence was read on a Synergy Neo2 Plate Reader with filter cubes 3 and 114. Integration time was set to 0.20 seconds, gain set to 160, and read height set at 6 mm. All experiments were performed in triplicate on the plate, and at least in one separate technical duplicate was performed.\nMEK4 selectivity was performed in the same manner with activated MEK4 (Carna Biosciences). Here, p-38α was employed as the kinase substrate in lieu of JNK1 due to the availability of reagents. […] To probe the ATP-competitive nature of 25, this compound was subjected to a similar assay forgoing the 30 minute incubation time described above (STAR Protocols 2021, 2, 100717). The results are tabulated below in compound characterization. Potency determined by duplicate of triplicates corresponded to a IC50 value, which is in line with the ratio difference observed among other covalent inhibitors (for examples, see Cell Chem. Biol. 2020, 27, 1285)."}, "EGFR (L858R) mutant": {"target": "T3, EGFR (L858R) mutant (Homo sapiens, UniProt P00533, L858R)", "T3 construct": "purchased DiscoverX (Eurofins)", "T3 sequence (P00533 25-1210 L858R)": "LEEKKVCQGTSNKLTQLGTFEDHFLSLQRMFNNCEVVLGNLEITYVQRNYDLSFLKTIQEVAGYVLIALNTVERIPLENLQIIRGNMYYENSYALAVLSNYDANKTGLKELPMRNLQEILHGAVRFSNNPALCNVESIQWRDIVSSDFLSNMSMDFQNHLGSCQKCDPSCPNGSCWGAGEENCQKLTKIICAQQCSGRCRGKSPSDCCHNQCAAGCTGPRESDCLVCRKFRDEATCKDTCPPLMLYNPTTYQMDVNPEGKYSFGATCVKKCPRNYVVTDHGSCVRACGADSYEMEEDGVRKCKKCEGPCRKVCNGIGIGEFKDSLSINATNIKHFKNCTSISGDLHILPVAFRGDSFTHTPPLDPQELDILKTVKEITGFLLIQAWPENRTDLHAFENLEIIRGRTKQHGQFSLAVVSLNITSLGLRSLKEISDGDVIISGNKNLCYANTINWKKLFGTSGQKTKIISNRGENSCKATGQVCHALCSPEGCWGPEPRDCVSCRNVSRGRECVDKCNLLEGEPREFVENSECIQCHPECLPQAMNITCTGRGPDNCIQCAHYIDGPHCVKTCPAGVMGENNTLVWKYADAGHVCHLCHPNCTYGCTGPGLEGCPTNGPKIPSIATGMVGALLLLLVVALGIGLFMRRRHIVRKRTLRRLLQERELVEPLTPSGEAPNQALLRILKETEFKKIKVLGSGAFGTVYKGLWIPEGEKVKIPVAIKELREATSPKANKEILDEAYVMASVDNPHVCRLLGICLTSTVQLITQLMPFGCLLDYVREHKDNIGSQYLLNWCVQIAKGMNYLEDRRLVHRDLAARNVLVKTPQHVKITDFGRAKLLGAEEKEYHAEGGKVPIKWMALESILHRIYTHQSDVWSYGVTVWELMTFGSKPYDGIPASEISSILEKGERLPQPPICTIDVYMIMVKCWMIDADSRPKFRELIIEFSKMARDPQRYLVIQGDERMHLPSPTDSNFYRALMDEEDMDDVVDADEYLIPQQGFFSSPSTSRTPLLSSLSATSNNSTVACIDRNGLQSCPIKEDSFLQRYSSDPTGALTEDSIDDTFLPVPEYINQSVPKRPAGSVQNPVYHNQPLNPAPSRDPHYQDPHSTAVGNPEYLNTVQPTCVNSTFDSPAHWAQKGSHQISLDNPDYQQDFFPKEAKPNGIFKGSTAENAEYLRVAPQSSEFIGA", "experiment": "ScanEDGE competition binding, EGFR (L858R)", "set-up": "dose or concentration left out as unconfirmed", "text": "(§1) The ScanEDGE assay, completed by DiscoverX (Eurofins) is a proprietary active site-directed competition binding assay. Compounds that bind the kinase active site prevent kinase binding to the immobilized ligand, reducing the amount of kinase captured on the solid support. Hits are identified by measuring the amount of kinase captured in experimental vs, control samples by a qPCR method that detects an associated DNA label. According to data provided by Eurofins, a typical hit at 5-10% of control signal in a 1 μM assay as shown above is generally associated with a KD in the range of 100-1,000 nM. Readings with greater than 35% of control signal correspond to exceeding large dissociation constants."}, "MEK5": {"target": "T4, MEK5 (Homo sapiens, UniProt Q13163)", "T4 sequence (Q13163 1-448)": "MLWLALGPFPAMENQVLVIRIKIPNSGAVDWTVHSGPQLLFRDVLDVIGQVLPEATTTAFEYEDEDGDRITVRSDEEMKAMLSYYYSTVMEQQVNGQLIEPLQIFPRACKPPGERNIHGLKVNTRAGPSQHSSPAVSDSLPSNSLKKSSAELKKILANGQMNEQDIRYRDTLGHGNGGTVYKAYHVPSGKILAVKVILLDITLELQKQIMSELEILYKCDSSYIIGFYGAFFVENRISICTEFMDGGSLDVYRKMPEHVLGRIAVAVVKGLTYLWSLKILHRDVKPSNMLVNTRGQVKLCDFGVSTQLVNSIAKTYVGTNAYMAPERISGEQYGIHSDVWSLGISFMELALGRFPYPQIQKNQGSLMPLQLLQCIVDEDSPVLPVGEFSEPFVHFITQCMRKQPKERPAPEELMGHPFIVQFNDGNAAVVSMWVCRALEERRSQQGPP", "experiment": "Additional selectivity assay, MEK5 (FIG. 9)", "assay_type": "binding"}, "MEK1/2": {"test_system": "MEK1/2", "experiment": "ScanEDGE competition binding, MEK1/2", "conditions": "ScanEDGE screen", "text": "as §1"}, "EGFR": {"target": "T5, EGFR (Homo sapiens, UniProt P00533)", "T5 construct": "purchased DiscoverX (Eurofins)", "T5 sequence (P00533 25-1210)": "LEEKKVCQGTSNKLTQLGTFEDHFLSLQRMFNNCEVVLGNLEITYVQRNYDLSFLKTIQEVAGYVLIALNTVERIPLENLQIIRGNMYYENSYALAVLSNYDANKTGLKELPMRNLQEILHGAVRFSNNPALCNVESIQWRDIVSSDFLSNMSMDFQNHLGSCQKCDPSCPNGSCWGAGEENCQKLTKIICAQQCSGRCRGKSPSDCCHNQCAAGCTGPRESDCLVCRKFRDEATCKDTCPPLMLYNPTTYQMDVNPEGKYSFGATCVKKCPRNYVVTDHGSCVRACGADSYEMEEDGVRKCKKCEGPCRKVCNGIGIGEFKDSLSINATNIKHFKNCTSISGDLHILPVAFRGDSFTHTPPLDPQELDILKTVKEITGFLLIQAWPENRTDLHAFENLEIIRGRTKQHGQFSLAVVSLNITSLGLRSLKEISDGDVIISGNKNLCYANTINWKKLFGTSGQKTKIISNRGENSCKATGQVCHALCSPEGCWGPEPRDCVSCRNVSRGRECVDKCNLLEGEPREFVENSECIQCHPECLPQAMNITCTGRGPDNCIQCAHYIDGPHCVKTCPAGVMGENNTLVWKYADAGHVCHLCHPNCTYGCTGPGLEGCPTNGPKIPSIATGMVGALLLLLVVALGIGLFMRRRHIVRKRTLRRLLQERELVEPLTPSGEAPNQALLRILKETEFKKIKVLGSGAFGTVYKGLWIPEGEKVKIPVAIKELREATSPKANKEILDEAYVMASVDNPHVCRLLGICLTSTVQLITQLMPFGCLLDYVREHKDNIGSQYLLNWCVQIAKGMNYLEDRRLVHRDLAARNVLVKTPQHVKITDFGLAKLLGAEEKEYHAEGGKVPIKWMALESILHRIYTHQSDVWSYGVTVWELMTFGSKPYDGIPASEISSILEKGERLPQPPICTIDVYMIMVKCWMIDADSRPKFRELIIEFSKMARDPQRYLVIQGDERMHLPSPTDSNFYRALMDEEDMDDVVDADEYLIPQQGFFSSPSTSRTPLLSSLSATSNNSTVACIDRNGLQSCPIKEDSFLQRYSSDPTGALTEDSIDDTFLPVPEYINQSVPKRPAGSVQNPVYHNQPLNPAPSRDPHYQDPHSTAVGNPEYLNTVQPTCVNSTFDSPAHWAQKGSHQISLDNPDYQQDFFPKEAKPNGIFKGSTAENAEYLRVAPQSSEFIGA", "experiment": "ScanEDGE competition binding, EGFR", "conditions": "at 1 μM; b168 prints 1 M", "text": "as §1"}}, "note": "“Also recorded” adds a separate entry of the source. Where two headings read alike, the source gives them in different places.", "data": [{"smiles": "O=C(CCl)Nc1cccc(Oc2cc(NCc3ccccc3)ncn2)c1", "note": "[Compound 25, N-(3-((6-(benzylamino)pyrimidin-4-yl)oxy)phenyl)-2-chloroacetamide]", "values": [{"measurement": "activity/binding at MEK3", "setting": "MEK3", "value": "inactive; also recorded: lack of binding"}, {"measurement": "IC50", "setting": "[1]; 30 min preincubation, read-out: MEK7 IC50", "value": 10, "unit": "nM"}, {"measurement": "IC50", "setting": "[1]; MEK7 IC50, first experiment (IC50±SEM, n=3), 30 min preincubation, first value in brackets", "value": 17, "unit": "nM"}, {"measurement": "IC50", "setting": "[1]; MEK7 IC50, second experiment (IC50±SEM, n=3), 30 min preincubation, second value in brackets", "value": "< 1.4", "unit": "nM"}, {"measurement": "IC50", "setting": "[1]; MEK7 IC50 without preincubation, first experiment (n=3), without preincubation, first value in brackets", "value": "67 ± 21", "unit": "nM"}, {"measurement": "IC50", "setting": "[1]; MEK7 IC50 without preincubation, second experiment (n=3), without preincubation, second value in brackets", "value": 119, "unit": "nM"}, {"measurement": "IC50", "setting": "[1]; without 30 min preincubation, overall value, read-out: MEK7 IC50 without preincubation", "value": 93, "unit": "nM"}, {"measurement": "IC50", "setting": "[1]; without preincubation, no unit printed, read-out: MEK7 IC50 without preincubation", "value": 93, "unit": "nM"}, {"measurement": "binding to EGFR (L858R) mutant", "setting": "EGFR (L858R) mutant", "value": "interacted significantly"}, {"measurement": "activity/binding at MEK5", "setting": "MEK5", "value": "inactive; also recorded: lack of binding"}, {"measurement": "activity on MEK1/2", "setting": "MEK1/2", "value": "no appreciable activity"}, {"measurement": "binding to EGFR", "setting": "EGFR", "value": "interacted significantly; also recorded: appreciably bound"}]}]}
